Data published in PMC4080980, “The pharmacokinetics of anthocyanins and their metabolites in humans” (British Journal of Pharmacology, 2014).
Marks after values point to notes of the source that are not given here.

Columns and labels:
Assay type in all cases: in vivo, humans
[1] = Faecal recovery after 500 mg oral bolus of 13C5-C3G; details: faeces, 500 mg oral 13C5-C3G; for Recovery 0–6 h: 0–6 h (only 2 participants provided voids); for Recovery 6–24 h / Recovery 24–48 h: mean ± SEM
Method: The study was conducted at the Clinical Research and Trials Unit at the University of East Anglia according to the principles expressed in the Declaration of Helsinki and was approved by the Cambridgeshire 3 Research Ethics Committee (REC ref: 10/H0306/42) and registered at clinicaltrials.gov as NCT01106729.
Sample extracts (5 μL) were injected onto a Kinetex PFP column (Phenomonex) and separated using an Agilent 1200 series HPLC with a QTrap 4000 linear ion trap mass spectrometer (ABSciex, Warrington, UK). […] Metabolite identification was performed by multiple reaction monitoring (MRM) optimized for the detection of pure standards with m/z of the parent and daughter fragments adjusted to +2,+3,+5 amu to allow identification of the ^13C-labelled metabolites derived from the B-ring, A-ring or the parent structure respectively. […] The HPLC-ESI-MS/MS method was validated for linearity and precision across all metabolites.
Pharmacokinetic parameters were established for each individual analyte and presented as mean ± SEM. Urine samples collected during the first 6 h post-bolus were grouped together to the nearest hour time point (i.e. samples were not pooled but individual concentrations were averaged post-quantification) for graphical representation and to calculate total cumulative recovery. The concentration of metabolites was converted to amount recovered from urine by accounting for the molecular weight of the individual ^13C-labelled metabolites and the volume of the individual participants void and averaged across participants. […] Urine and faecal recovery amounts are presented as mean ± SEM (n = 8), unless otherwise stated.

[2] = Urinary elimination/recovery after 500 mg oral bolus of 13C5-C3G; details: urine, single 500 mg oral 13C5-C3G; for Total recovery: 0-48 h; for Total recovery / Maximum concentration: mean ± SEM; for Tmax: male, human, po, 500 mg, urine collection interval, read-out: Time at maximum concentration
Method: (§1) A detailed description of the clinical design was previously published ([Czank et al., 2013]). Briefly, a single 500 mg oral bolus dose of isotopically labelled C3G (^13C5-C3G) was fed to eight healthy male participants (body mass index, 18.5–30.5 kg·m^–2; aged 18–45 years) after an overnight fast (>8 h). Participants provided blood (baseline, 0.5, 1, 2, 4, 6, 24, 48 h), urine (individual voids between 0 and 6 h, total voids between 6–24 and 24–48 h), breath (baseline, 0.5, 1, 2, 4, 6, 24, 48 h) and faecal samples (all voids between 0–6, 6–24 and 24–48 h). The study was conducted at the Clinical Research and Trials Unit at the University of East Anglia according to the principles expressed in the Declaration of Helsinki and was approved by the Cambridgeshire 3 Research Ethics Committee (REC ref: 10/H0306/42) and registered at clinicaltrials.gov as NCT01106729.
(§2) Serum, urine and faecal samples were extracted by SPE and analysed by HPLC-ESI-MS/MS as recently described ([Czank et al., 2013]). The extraction efficiency was established as 87 ± 11% (coefficient of variation, CV; 6.8 ± 0.7%) for serum, 88 ± 18% (CV, 7.9 ± 0.8%) for urine and 81 ± 21% (CV, 14.1 ± 1.2%) for faeces (n = 3 replicates for each analyte). Sample extracts (5 μL) were injected onto a Kinetex PFP column (Phenomonex) and separated using an Agilent 1200 series HPLC with a QTrap 4000 linear ion trap mass spectrometer (ABSciex, Warrington, UK). […] Metabolite identification was performed by multiple reaction monitoring (MRM) optimized for the detection of pure standards with m/z of the parent and daughter fragments adjusted to +2,+3,+5 amu to allow identification of the ^13C-labelled metabolites derived from the B-ring, A-ring or the parent structure respectively. Metabolites were confirmed on the basis of retention time (using authentic and synthesized standards where possible) and three or more ion transitions. The HPLC-ESI-MS/MS method was validated for linearity and precision across all metabolites. Six point standard curves ranging from 1.25 to 20 μM were constructed from analytical standards and injected six times. The precision was established as 1.4–11.0% and linearity of the standard curves was established as r^2 = 0.991–1.000 (CV, 0.2%) across the identified metabolites.
(§3) Pharmacokinetic modelling of metabolites in the serum was performed with the PKSolver ‘add-on’ for Excel 2010 (Microsoft, […], USA) ([Zhang et al., 2010]) using non-compartmental analysis with the AUC calculated using the trapezoidal rule. Pharmacokinetic parameters were established for each individual analyte and presented as mean ± SEM. Urine samples collected during the first 6 h post-bolus were grouped together to the nearest hour time point (i.e. samples were not pooled but individual concentrations were averaged post-quantification) for graphical representation and to calculate total cumulative recovery. The concentration of metabolites was converted to amount recovered from urine by accounting for the molecular weight of the individual ^13C-labelled metabolites and the volume of the individual participants void and averaged across participants. Recovery of metabolites in the faeces was established from the molecular weight of the ^13C-labelled metabolite and the weight of the individual participants void adjusting for faecal water content as previously described ([Czank et al., 2013]). Urine and faecal recovery amounts are presented as mean ± SEM (n = 8), unless otherwise stated.

[3] = Serum pharmacokinetics after 500 mg oral bolus of 13C5-C3G (HPLC-ESI-MS/MS, non-compartmental analysis); details: for Cmax / Tmax / AUC0-48 / half-life / AUC(0-t): serum; for Cmax / Tmax / AUC0-48 / half-life / AUC(0-t) / t1/2: single 500 mg oral 13C5-C3G; for Cmax: healthy men, mean ± SEM of participants in whom detected; for Tmax / AUC0-48 / half-life / AUC(0-t) / t1/2: mean ± SEM; for AUC0-48 / AUC(0-t): trapezoidal rule; for half-life / t1/2: serum elimination half-life; for AUC(0-t): read-out: AUC0-48
Method: as §1, §2, §3

[4] = male, human, po, 500 mg, read-out: tmax

SMILES	Recovery 6–24 h [1]	Recovery 24–48 h [1]	Total recovery [2] [µg]	Maximum concentration [2] [nM]	Tmax [2] [h]	other results
COc1cc(C(=O)O)ccc1OC1OC(C(=O)O)C(O)C(O)C1O (stereo not shown) [VA-4-glucuronide]	3.3 ^b μg	9.5 ± 7.9 ^g μg	618.4 ± 109.7	762 ± 124	–	Recovery 0–6 h [1]: 3.6 ^b μg; Cmax [3]: 24 ± 4 nM; Tmax [3]: 4.8 ± 0.4 h; AUC0-48 [3]: 0.074 ± 0.011 µM·h
COc1cc(-c2[o+]c3cc(O)cc(O)c3cc2OC2OC(CO)C(O)C(O)C2O)ccc1O (stereo not shown) [Peonidin-3-glucoside]	–	–	22.9 ± 10.6	76 ± 43	1 to 2	–
O=C(O)c1ccc(OC2OC(C(=O)O)C(O)C(O)C2O)cc1 (stereo not shown) [Benzoic acid-4-glucuronide]	6.8 ± 3.0 ^c μg	14.8 ± 8.0 ^i μg	53.1 ± 18.1	129 ± 47	4 to 5	Recovery 0–6 h [1]: 1.5 ^b μg; half-life ([3]; male, human, po, 500 mg): 17.1 ± 3 h; Tmax [3, 4]: 10.9 ± 3.4 h; Cmax ([3]; male, human, po, 500 mg): 74 ± 20 nM; AUC(0-t) ([3]; male, human): 1.47 ± 0.489 µM·h
COc1ccc(C=O)cc1 [4-Methoxybenzaldehyde]	20.7 ^b μg	–	–	–	–	–
O=Cc1ccc(O)c(O)c1 [3,4-Dihydroxybenzaldehyde]	3.4 ± 3.8 ^h μg	5.1 ± 1.8 ^i μg	6.3 ± 2.6	24 ± 7	0 to 1	Maximum concentration ([2]; listed as 3,4-dihydroxybenzaldehyde): 24 nM
COc1ccc(C(=O)O)cc1OC1OC(C(=O)O)C(O)C(O)C1O (stereo not shown) [IsoVA-3-glucuronide]	1.3 ^b μg	12.7 ± 10.9 ^h μg	526.8 ± 92.2	699 ± 90	–	Recovery 0–6 h [1]: 1.8 ^b μg; t1/2 [3]: 1.6 ± 0.2 h; Cmax [3]: 35 ± 5 nM; Tmax [3]: 4.3 ± 0.6 h; AUC0-48 [3]: 0.103 ± 0.013 µM·h
O=C(O)CNC(=O)c1ccccc1 [Hippuric acid]	12.0 ± 11.4 ^g μg	27.5 ± 27.4 ^h μg	2415.6 ± 2223.0	5417 ± 4906	6 to 24	Maximum concentration ([2]; listed as hippuric acid): 5417 nM; half-life ([3]; male, human, po, 500 mg): 95.6 ± 77.8 h; Tmax [3, 4]: ~16 h; Cmax ([3]; male, human, po, 500 mg): 1960 ± 1390 nM; Tmax [3]: 15.7 ± 4.1 h
COc1cc(C(=O)O)ccc1OS(=O)(=O)O [VA-4-sulfate]	–	69.0 ± 39.1 ^g μg	449.1 ± 112.4	1682 ± 899	–	Recovery 0–6 h [1]: 0.6 ^b μg
COc1ccc(C(=O)O)cc1OS(=O)(=O)O [IsoVA-3-sulfate]	0.6 ± 0.3 ^h μg	176.1 ± 174.7 ^h μg	183.2 ± 93.1	822 ± 557	–	–
O=C(O)Cc1ccc(O)cc1 [4-Hydroxyphenylacetic acid]	7.3 ^b μg	55.4 ^b μg	50.0 ± 2.0	391 ± 113	4 to 5	–
COc1cc(/C=C/C(=O)O)ccc1O [Ferulic acid]	–	–	–	–	–	Recovery 6–24 h ([1]; listed as B-ring-derived ferulic acid): 2373.1 µg; Tmax [3, 4]: ~8 h; AUC(0-t) ([3]; male, human): 1.82 ± 1.05 µM·h; time of detection after consumption ([3]; serum and urine samples): ≤ 4 h; Tmax [3]: 8.2 ± 4.1 h

The next lines start with results.

Recovery 6–24 h [1]	Recovery 24–48 h [1]	Total recovery [2] [µg]	Maximum concentration [2] [nM]	Tmax [2] [h]	SMILES	other results
–	22.0 ± 11.6 ^g μg	13.2 ± 3.7	49 ± 11	1 to 2	O=C(O)c1ccc(O)cc1	–
1.4 ^b μg	273.3 ± 272.7 ^h μg	64.6	172	3 to 4	COc1ccc(C(=O)O)c(O)c1 [2-Hydroxy-4-methoxybenzoic acid]	–
469.7 µg	–	–	–	–	COc1cc(/C=C/C(=O)O)ccc1O [A-ring-derived ferulic acid]	t1/2 [3]: 96.5 ± 73.4 h
25.2 ^b μg	354.6 ± 125.0 ^h μg	–	–	–	O=C(O)/C=C/c1ccc(O)c(O)c1 [Caffeic acid]	–
0.8 ± 0.8 ^h μg	0.1 ^b μg	10.0 ± 9.0	97 ± 94	5 to 6	O=Cc1ccc(O)cc1 [4-Hydroxybenzaldehyde]	half-life ([3]; male, human, po, 500 mg): 17.9 ± 8.8 h; Tmax [3, 4]: 5.6 ± 3.1 h; Cmax ([3]; male, human, po, 500 mg): 667 ± 653 nM; AUC(0-t) ([3]; male, human): 0.663 ± 0.505 µM·h
35.1 ^b μg	–	–	–	–	COC(=O)c1ccc(O)c(OC)c1 [Methyl vanillate]	–
11.0 ^b μg	8.5 ^b μg	79.5 ± 54.2	212 ± 130	–	COc1ccc(C(=O)O)cc1O [IsoVA]	Cmax [3]: 195 nM; Tmax [3]: 2.0 h; AUC0-48 [3]: 0.189 µM·h
166.6 ± 100.6 ^g μg	92.4 ± 49.4 ^f μg	20.7 ± 8.0	108 ± 39	3 to 4	COC(=O)c1ccc(O)c(O)c1 [Methyl-3,4-dihydroxybenzoate]	half-life ([3]; male, human, po, 500 mg): 21.6 ± 5.9 h; Tmax [3, 4]: 8.4 ± 5.7 h; Cmax ([3]; male, human, po, 500 mg): 12 ± 5 nM; AUC(0-t) ([3]; male, human): 0.171 ± 0.07 µM·h
10.1 ± 4.0 ^e μg	12.8 ± 7.5 ^c μg	28.0	82	24 to 48	O=C(O)Cc1ccc(O)c(O)c1 [3,4-Dihydroxyphenylacetic acid]	Recovery 0–6 h [1]: 2.0 ^b μg
–	440.4 ± 381.8 ^h μg	–	–	–	O=C(O)c1cccc(O)c1O [2,3-Dihydroxybenzoic acid]	–
23.0 ± 18.1 ^g μg	12.0 ± 10.2 ^g μg	492.4 ± 193.0	1244 ± 333	–	O=C(O)c1ccc(OS(=O)(=O)O)c(O)c1 [PCA-4-sulfate]	–
